Data taken from ChEMBL document CHEMBL1201862, “PubChem BioAssay data set” (2004).
Activity calls are given as the source filed them.

Experiments:
[1] = biological target: T1, Tyrosine-protein phosphatase non-receptor type 7 (Homo sapiens, UniProt P35236); type: functional
T1 sequence (P35236 whole entry): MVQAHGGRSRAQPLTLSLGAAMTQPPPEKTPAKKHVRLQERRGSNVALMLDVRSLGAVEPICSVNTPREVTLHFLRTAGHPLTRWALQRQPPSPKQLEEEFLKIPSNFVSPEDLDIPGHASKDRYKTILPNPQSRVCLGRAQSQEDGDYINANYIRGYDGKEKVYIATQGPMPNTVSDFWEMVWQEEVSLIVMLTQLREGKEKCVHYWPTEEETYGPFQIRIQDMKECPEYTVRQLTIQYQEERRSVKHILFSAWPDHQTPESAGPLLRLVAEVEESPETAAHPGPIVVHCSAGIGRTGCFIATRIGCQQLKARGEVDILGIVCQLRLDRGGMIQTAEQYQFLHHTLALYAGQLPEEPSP

[2] = biological target: Luciferin 4-monooxygenase (Photinus pyralis, UniProt P08659); test: inhibition of purified Photinus pyralis luciferase – biochemical, luminescence, dose response (AID 1891)
Chain of Luciferin 4-monooxygenase (P08659 whole entry): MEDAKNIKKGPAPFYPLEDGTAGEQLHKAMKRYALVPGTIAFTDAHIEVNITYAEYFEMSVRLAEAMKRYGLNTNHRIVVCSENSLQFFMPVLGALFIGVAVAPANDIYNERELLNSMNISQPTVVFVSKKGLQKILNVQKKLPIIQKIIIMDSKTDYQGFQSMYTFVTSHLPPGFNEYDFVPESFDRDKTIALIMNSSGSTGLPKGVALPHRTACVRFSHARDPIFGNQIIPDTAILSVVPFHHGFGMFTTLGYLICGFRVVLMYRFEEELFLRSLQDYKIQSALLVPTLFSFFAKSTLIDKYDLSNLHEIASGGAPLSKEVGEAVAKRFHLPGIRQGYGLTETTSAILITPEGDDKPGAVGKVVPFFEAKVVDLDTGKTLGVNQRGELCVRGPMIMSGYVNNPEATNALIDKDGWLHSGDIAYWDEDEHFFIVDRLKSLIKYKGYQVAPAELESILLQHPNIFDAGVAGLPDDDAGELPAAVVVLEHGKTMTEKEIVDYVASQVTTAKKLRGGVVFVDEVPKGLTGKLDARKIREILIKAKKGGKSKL

[3] = Luminescence Cell-Based Dose Confirmation HTS to Identify Inhibitors of Platelet Dense Granule Release. [Related pubchem assays: 1663 (Primary HTS), 1678 (Summary of Project)]; type: functional
[4] = biological target: T2, Tyrosine-protein phosphatase non-receptor type 22 (Homo sapiens, UniProt Q9Y2R2); type: functional
T2 sequence (Q9Y2R2 whole entry): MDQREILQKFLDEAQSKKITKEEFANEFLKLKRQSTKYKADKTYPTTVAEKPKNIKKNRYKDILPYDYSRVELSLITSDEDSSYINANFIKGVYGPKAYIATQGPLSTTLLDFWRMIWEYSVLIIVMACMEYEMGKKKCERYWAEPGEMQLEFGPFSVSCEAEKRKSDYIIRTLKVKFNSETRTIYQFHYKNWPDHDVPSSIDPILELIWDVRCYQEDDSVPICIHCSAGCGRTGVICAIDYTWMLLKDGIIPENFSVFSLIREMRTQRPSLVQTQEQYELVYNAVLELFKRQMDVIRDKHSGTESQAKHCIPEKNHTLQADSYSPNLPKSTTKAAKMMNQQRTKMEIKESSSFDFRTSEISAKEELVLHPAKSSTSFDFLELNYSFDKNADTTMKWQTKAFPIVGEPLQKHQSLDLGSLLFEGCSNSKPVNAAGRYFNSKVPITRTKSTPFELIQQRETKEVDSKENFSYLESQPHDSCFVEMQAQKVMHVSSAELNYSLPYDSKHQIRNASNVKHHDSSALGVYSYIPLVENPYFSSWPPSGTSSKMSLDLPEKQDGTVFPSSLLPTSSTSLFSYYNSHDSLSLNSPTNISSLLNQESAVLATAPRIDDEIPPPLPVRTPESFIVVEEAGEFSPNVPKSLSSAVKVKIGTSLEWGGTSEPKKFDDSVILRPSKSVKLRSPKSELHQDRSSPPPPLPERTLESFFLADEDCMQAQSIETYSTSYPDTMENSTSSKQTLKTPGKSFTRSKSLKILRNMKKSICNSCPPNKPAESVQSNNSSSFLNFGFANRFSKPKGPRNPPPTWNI

[5] = biological target: T2, Tyrosine-protein phosphatase non-receptor type 22; type: functional; remark: listed apart in the source
[6] = biological target: Large T antigen (Simian virus 40, UniProt P03070); type: functional, Betapolyomavirus macacae;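 further: Confirmatory-stage PubChem screen for compounds that inhibit SV40 T antigen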
[7] = biological target: Alkaline phosphatase, placental type (Homo sapiens, UniProt P05187); test: human placental alkaline phosphatase inhibition – biochemical, luminescence, confirmation (AID 1512); type: functional
Chain of Alkaline phosphatase, placental type (P05187 whole entry): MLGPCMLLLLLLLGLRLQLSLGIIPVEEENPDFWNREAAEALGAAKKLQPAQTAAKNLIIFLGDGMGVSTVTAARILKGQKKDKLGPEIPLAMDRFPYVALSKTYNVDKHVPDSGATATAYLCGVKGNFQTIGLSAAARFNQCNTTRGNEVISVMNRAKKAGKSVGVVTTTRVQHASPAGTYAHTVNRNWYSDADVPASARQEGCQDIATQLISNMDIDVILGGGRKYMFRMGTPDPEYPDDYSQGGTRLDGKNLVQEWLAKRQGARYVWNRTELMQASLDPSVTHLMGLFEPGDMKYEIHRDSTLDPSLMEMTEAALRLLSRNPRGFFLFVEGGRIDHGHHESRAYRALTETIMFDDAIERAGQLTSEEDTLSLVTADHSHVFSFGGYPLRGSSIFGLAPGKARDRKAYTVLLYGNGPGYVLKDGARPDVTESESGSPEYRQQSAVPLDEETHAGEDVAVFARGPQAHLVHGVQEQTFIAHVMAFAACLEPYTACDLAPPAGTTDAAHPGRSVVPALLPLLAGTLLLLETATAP

[8] = biological target: T3, Alkaline phosphatase, tissue-nonspecific isozyme (Homo sapiens, UniProt P05186); test: potency against alkaline phosphatase TNAP – biochemical, luminescent, dose response, SAR follow-up (AID 1056)
T3 sequence (P05186 whole entry): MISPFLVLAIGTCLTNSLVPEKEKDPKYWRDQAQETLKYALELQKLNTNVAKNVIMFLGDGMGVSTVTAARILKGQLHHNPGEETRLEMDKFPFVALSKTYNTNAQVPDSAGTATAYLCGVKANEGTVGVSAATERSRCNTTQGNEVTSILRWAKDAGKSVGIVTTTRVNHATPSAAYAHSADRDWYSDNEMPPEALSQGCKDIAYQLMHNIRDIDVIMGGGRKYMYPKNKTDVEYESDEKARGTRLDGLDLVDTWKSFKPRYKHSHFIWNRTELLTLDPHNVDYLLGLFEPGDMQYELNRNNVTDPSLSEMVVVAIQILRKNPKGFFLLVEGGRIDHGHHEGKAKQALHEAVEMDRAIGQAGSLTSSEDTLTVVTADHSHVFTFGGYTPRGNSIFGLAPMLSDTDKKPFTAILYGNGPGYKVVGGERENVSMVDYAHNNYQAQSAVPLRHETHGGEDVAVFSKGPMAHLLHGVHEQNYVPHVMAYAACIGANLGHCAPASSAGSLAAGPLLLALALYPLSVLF

[9] = tested on: CHO-K1; test: Counterscreen for antagonists of the orexin 1 receptor (OX1R; HCRTR1): Homogeneous time resolved fluorescence (HTRF)-based cell-based dose response assay to identify antagonists of the parental CHO-K1 cell line. [Related pubchem assays (depositor defined):AID434989, AID435008, AID463079, AID485270, AID492963, AID492964, AID492965, AID493232, AID504699, AID504701]; type: functional; conditions: Cricetulus griseus;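 further: potency for inhibition of ATP-stimulated IP1 production as antagonists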
[10] = Counterscreen for antagonists of the orexin 1 receptor (OX1R; HCRTR1): Fluorescence-based cell-based high throughput dose response assay to identify antagonists of the parental CHO cell line. [Related pubchem assays (depositor defined):AID434989, AID435008, AID463079, AID485270, AID492963, AID492964, AID492965, AID493232, AID504699, AID504701]; type: functional
[11] = biological target: T4, Orexin/Hypocretin receptor type 1 (Homo sapiens, UniProt O43613); test: Homogeneous Time Resolved Fluorescence (HTRF)-based cell-based high throughput dose response assay for antagonists of the orexin 1 receptor (OX1R; HCRTR1). [Related pubchem assays (depositor defined):AID434989, AID435008, AID463079, AID485270, AID492963, AID492964, AID492965, AID493232, AID504717, AID504718]; type: functional
T4 sequence (O43613 whole entry): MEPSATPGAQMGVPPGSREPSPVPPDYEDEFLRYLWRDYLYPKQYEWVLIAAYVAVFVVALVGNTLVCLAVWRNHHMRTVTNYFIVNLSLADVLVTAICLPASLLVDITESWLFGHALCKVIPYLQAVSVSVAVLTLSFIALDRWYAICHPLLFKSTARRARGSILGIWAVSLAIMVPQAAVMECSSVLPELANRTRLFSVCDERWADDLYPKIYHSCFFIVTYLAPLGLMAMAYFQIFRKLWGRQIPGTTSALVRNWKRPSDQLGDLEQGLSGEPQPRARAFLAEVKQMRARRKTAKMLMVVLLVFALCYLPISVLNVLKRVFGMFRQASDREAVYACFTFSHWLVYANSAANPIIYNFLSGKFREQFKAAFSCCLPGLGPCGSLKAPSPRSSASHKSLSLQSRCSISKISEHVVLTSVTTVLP

[12] = biological target: T4, Orexin/Hypocretin receptor type 1; test: Fluorescence-based cell-based high throughput dose response assay for antagonists of the orexin 1 receptor (OX1R; HCRTR1). [Related pubchem assays (depositor defined):AID434989, AID435008, AID463079, AID485270, AID492963, AID492964, AID492965, AID493232, AID504717, AID504718]; type: functional
[13] = Luminescence Cell-Based Dose Confirmation HTS to Identify Activators of 5'UTR Stem-Loop Driven Alpha-Synuclein mRNA Translation in H4 Neuroglioblastoma Cells. [Related pubchem assays: 1829 (Project Summary), 1814 (Primary HTS)]; type: functional
[14] = Luminescence Cell-Based Dose Response HTS to Identify Activators of Luciferase Translation or Activity in H4 […] Cells. [Related pubchem assays: 1829 (Project Summary), 1814 (Primary HTS)]; type: functional
[15] = tested on: Streptococcus sp. 'group A'; test: Streptococcus pyogenes SK(-)GAS viability under kanamycin – luminescence, BacTiterGlo, confirmation, counter-screen for streptokinase expression inhibitor project, dose response (AID 1900); type: functional, organism-based
[16] = tested on: H4; test: Luminescence Cell-Based Dose Response HTS to Identify Activators of 5'UTR Stem-Loop Driven Prion Protein mRNA Translation in H4 Neuroglioblastoma Cells. [Related pubchem assays: 1829 (Project Summary), 1814 (Primary HTS)]; type: functional; conditions: Homo sapiens
[17] = Trypanosoma cruzi growth suppression in host cells – NIH3T3 host cells, beta-gal luminescence, confirmation (AID 2044); type: functional, cell-based;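 further: intracellular parasites grown in NIH/3T3 mouse fibroblasts as host cells; luminescent beta-galactosidase reporter signal from transgenic T. cruzi replicating inside host cells; inhibitors lower the luminescence signal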
[18] = NIH3T3 cell viability loss – ATP luminescence, mouse fibroblasts, counter-screen, dose response (AID 2010); type: functional, cell-based;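 further: cells exposed to compound for about 90 hours before reading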
[19] = tested on: Streptococcus; test: GAS UMAA2166 growth inhibition – luminescence, BacTiterGlo, counter-screen for streptokinase expression inhibitor project, dose response (AID 1915); type: functional, organism-based;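 further: potency for reduction of bacterial viability or growth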
[20] = biological target: Exodeoxyribonuclease V (Escherichia coli (strain K12), UniProt P04993+P07648+P08394); test: RecBCD inhibition via phage-restricted bacterial growth – absorbance, V66 E. coli, mutant T4 phage, counter-screen for AddAB inhibitor project, dose response (AID 492957); type: functional, cell-based, Escherichia coli str. K-12 substr. MG1655
Chain of Exodeoxyribonuclease V (P04993 whole entry): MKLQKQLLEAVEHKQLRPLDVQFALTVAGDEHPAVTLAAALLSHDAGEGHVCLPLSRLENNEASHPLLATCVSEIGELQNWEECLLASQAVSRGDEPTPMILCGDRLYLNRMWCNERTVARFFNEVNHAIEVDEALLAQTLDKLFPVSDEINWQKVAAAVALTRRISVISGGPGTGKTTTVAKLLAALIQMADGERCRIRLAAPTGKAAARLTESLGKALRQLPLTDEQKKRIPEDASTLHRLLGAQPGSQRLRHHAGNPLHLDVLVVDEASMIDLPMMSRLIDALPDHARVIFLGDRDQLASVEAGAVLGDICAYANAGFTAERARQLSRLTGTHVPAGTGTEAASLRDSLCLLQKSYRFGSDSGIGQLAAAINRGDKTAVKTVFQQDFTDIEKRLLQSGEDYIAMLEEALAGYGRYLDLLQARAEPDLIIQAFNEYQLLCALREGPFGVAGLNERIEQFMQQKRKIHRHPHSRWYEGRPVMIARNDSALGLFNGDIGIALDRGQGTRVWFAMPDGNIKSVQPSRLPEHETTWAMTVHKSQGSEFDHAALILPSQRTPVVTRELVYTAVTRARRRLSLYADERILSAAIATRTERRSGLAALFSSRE
Chain of Exodeoxyribonuclease V (P07648 whole entry): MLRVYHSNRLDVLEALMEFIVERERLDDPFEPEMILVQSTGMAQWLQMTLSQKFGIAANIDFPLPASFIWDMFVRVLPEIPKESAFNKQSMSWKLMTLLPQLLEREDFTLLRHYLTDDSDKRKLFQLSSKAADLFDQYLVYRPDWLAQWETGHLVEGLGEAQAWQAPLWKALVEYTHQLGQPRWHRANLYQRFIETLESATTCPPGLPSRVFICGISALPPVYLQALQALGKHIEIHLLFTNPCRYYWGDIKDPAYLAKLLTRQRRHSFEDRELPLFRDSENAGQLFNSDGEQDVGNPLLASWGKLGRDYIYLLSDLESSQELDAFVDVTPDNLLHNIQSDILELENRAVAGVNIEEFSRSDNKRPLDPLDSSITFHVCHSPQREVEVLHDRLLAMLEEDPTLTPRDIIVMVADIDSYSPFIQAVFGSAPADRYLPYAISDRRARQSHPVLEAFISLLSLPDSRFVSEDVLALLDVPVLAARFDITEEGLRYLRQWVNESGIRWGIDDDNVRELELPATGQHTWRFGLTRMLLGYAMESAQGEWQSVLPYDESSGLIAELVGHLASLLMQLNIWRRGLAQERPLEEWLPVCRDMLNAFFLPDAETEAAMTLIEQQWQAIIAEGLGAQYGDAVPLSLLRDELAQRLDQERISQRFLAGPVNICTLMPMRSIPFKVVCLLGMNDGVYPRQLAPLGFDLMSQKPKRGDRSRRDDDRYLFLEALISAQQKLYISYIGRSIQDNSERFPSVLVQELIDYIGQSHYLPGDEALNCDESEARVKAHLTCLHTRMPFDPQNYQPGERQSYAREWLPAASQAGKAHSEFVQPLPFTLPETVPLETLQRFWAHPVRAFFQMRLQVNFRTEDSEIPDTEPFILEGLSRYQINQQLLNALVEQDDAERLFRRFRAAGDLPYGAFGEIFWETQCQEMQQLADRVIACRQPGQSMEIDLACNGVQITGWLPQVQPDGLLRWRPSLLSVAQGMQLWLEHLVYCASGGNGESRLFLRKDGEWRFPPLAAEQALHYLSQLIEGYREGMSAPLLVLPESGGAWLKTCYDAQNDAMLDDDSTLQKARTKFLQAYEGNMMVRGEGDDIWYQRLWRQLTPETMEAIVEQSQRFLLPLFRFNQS
Chain of Exodeoxyribonuclease V (P08394 whole entry): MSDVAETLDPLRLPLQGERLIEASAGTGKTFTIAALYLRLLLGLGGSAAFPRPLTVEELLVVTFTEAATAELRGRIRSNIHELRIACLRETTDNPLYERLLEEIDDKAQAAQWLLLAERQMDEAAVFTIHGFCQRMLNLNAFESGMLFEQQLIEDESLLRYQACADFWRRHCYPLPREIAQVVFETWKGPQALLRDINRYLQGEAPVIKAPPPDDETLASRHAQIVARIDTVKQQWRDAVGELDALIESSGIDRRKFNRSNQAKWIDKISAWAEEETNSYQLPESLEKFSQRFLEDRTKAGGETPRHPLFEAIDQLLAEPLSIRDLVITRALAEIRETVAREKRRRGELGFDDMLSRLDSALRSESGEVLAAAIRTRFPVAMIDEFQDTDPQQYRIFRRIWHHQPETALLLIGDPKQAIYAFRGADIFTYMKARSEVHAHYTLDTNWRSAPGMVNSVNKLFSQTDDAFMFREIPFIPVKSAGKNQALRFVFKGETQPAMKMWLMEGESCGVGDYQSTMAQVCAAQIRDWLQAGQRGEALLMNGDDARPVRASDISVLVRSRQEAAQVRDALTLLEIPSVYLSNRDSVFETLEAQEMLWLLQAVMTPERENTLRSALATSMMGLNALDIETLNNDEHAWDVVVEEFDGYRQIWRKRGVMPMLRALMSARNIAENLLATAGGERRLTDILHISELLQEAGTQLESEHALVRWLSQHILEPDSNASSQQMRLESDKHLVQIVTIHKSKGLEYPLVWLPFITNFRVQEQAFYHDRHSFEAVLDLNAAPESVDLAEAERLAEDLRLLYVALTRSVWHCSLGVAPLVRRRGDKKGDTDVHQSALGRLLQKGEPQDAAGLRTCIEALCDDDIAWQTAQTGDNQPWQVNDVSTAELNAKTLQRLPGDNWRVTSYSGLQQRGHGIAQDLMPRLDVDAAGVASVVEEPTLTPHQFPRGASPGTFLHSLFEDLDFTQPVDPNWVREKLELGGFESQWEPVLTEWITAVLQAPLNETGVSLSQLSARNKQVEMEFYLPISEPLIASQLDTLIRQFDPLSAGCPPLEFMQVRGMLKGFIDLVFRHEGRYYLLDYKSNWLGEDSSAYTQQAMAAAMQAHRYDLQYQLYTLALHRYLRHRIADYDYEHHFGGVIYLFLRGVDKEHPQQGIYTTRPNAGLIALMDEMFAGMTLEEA

[21] = Counterscreen for AddAB inhibitors: absorbance-based bacterial cell-based high throughput dose response assay for inhibitors of bacterial viability. [Related pubchem assays (depositor defined):AID435030, AID449728, AID449731, AID488942, AID488955, AID488956]; type: functional
[22] = tested on: BJ; test: BJ-TERT fibroblast viability loss – cell-based, RAS-independent, luminescence, dose response (AID 1933); type: functional; conditions: Homo sapiens
[23] = cells; type: functional, cell-based
[24] = tested on: BJ; test: cells; type: functional, cell-based; conditions: Homo sapiens
[25] = microbe, parasite or virus in culture; type: functional; conditions: Mycobacterium tuberculosis
[26] = cells; type: functional, cell-based; remark: listed apart in the source
[27] = tested on: BJ; test: BJ-TERT-LT-ST fibroblast viability loss – cell-based, RAS-independent, luminescence, dose response (AID 1935); type: functional; conditions: Homo sapiens;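 further: BJ fibroblasts immortalized with TERT plus LT and ST oncogenes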
[28] = DRD fibroblast viability loss – cell-based, non-viral oncogenic, luminescence, dose response (AID 1934); type: functional; conditions: Homo sapiens
[29] = tested on: BJ; test: growth inhibition of engineered Ras-driven BJ cells – cell-based, alamar blue fluorescence, cherrypicked samples, dose response (AID 2631); type: functional; conditions: Homo sapiens;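 further: confirmatory dose-response assay in RAS-dependent BJ fibroblasts engineered with TERT, LT and ST, with cytotoxicity read by fluorescence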
[30] = tested on: INS1; test: INS-1E survival protection against cytokine death – cell-based, luminescence, retest, dose response (AID 449756); type: functional; conditions: Rattus norvegicus;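 further: cell death triggered by IL-1 beta plus TNF-alpha plus IFN-gamma mixture; protective hits raise ATP signal compared with cytokine alone wells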
[31] = biological target: T5, E3 ubiquitin-protein ligase XIAP (Homo sapiens, UniProt P98170); test: Counter Screen using XIAP-Bir3 for Chemical Antagonists of Bir1/2 domains of IAP-family anti-apoptotic proteins. [Related pubchem assays (depositor defined):AID1018, AID1449, AID1514, AID1638, AID1749, AID1750, AID488957, AID488963]
T5 sequence (P98170 whole entry): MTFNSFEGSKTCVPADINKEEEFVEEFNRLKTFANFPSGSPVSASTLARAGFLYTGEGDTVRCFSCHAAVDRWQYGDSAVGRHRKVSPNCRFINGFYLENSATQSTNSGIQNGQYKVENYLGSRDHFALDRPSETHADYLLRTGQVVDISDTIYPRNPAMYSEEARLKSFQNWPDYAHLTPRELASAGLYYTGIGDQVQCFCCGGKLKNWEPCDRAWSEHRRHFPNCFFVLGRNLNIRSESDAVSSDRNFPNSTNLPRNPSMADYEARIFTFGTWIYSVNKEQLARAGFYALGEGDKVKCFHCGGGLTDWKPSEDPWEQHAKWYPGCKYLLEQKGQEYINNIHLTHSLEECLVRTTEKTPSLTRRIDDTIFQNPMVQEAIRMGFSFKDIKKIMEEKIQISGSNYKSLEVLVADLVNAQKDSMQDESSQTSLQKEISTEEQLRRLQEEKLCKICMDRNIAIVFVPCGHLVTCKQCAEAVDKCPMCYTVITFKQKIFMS

[32] = biological target: T5, E3 ubiquitin-protein ligase XIAP; test: small molecules displacing peptide from XIAP – biochemical, IAP family, fluorescence polarization (AID 1018); type: functional

SMILES: COC(=O)C(C(=O)NCC1CCCO1)C1CCCCCC1 (centres undefined)
- IC50 [1]: > 79.4 µM (inactive)
- EC50 [2]: > 112 µM (not active)
- EC50 [3]: > 112 µM (not active)
- IC50 [4]: > 79.4 µM (inactive)
- IC50 [5]: > 79.4 µM (inactive)

SMILES: Cc1cc(Cl)ccc1OCC(=O)OCC(=O)Nc1ccc(F)c([N+](=O)[O-])c1
- IC50 [1]: > 79.4 µM (inactive)
- IC50 [4]: > 79.4 µM (inactive)
- IC50 [5]: > 79.4 µM (inactive)

SMILES: Cn1c(SCC(=O)c2ccc(O)c(O)c2)nnc1-c1cccs1
- IC50 [6]: > 100 µM (active)
- IC50 [7]: 4.9 µM (active)
- IC50 [8]: > 100 µM (inactive)

SMILES: C=CCn1c(SCC(=O)c2ccc(O)c(O)c2)nnc1-c1ccc(C(C)(C)C)cc1
- IC50 [7]: 97.5 µM (active)
- IC50 [8]: > 100 µM (inactive)

SMILES: COC(=O)C(C(C)=O)C1=C/C(=N\S(=O)(=O)c2ccc(C)cc2)c2ccccc2C1=O (centres undefined)
- IC50 [9]: 53.7 µM (inactive)
- IC50 [10]: > 49.8 µM (inactive)
- IC50 [11]: 0.414 µM (active)
- IC50 [12]: 2.83 µM (active)

SMILES: CCOC(=O)C1=C(C)N=C2C(=C(O)c3ccccc32)C1c1ccc([N+](=O)[O-])o1 (centres undefined)
- EC50 [13]: > 120 µM (not active)
- EC50 [14]: > 120 µM (not active)
- EC50 [15]: 2.81 µM (active)
- EC50 [16]: > 120 µM (not active)
- EC50 [17]: 1.43 µM (active)
- EC50 [18]: > 60 µM (not active)
- EC50 [19]: 29.9 µM (active)
- IC50 [20]: > 119 µM (inactive)
- IC50 [21]: > 119 µM (inactive)

SMILES: COc1ccc(N/N=C(/N=Nc2nc(C)cc(O)n2)c2ccccc2)cc1
- EC50 [22]: 4.09 µM (active)
- EC50 [23]: 3.44 µM (active)
- EC50 [24]: 3.68 µM (active)
- CC50 [25]: 6.39 µM (active)
- EC50 [26]: 5.67 µM (active)
- EC50 [27]: 4.21 µM (active)
- EC50 [28]: 5.72 µM (active)
- IC50 [20]: > 119 µM (inactive)
- IC50 [21]: > 119 µM (inactive)
- EC50 [29]: 0.615 µM (active)
- AC50 [30]: < 0.195 µM (active)

SMILES: Cc1ccc(C(=O)N/N=C\c2ccccc2[N+](=O)[O-])cn1
- IC50 [31]: > 100 µM (inactive)
- IC50 [32]: > 100 µM (not active)
